Test results: patent US5753483A (priority 1995, dated 1998)
Entries after “also recorded” stand apart in the source; their conditions may differ. Where two headings read alike, the source gives them in different places. One block for each compound: values may come before it.

Tests used:
[1] = target: T1, Pyrophosphorylase (Sus scrofa, UniProt F1S210); test: Specificity of pyrophosphorylase (forward direction); assay type: biochemical, pig; details: for Activity / Relative Activity: sugar phosphate 5 mM, UT = 5 mM; for Relative Activity: GalNAc-1-P = 100
T1 construct: 64 and 55 kDa bands; native about 125 kDa
Protocol: (§1) After an incubation of 10 minutes at 37° C., the reaction was terminated by heating the tubes in a boiling water bath for 30 seconds. The amount of product could either be determined by measuring the amount of radioactivity that bound to DE-52 (HCO3 -) after treatment of the reaction mixtures with alkaline phosphatase, or the product could be detected by TLC.
(§2) The substrate specificity of the purified enzyme was examined in both the forward and the reverse direction.

[2] = tested on: UDP-GlcNAc pyrophosphorylase; test: Kinetic constants, forward direction (sugar-1-P + UTP); assay type: biochemical, pig
Protocol: as §1

[3] = target: T1, Pyrophosphorylase; test: Putative inhibitors of pyrophosphorylase; assay type: biochemical, pig; details: for inhibition at 1000 µM: 1.0 mM; for inhibition at 100 µM: 0.1 mM
Protocol: A variety of other inhibitors were tested, including various sulfhydryl reagents and metal chelators.

[4] = target: T2, UDP-GlcNAc pyrophosphorylase (Sus scrofa, UniProt F1S210); test: Photoaffinity labeling of purified pyrophosphorylase and its inhibition (FIG. 5); assay type: binding, pig; details: for labeling of enzyme subunits by probe: UV light, SDS-PAGE
T2 construct: both 64 and 55 kDa bands photolabelled
Protocol: Enzyme was incubated with radioactive probe in the presence or absence of various inhibitors, and some of the incubations were exposed to UV light to activate the probe. Each incubation was treated with trichloroacetic acid to precipitate the protein, and the pellet was resuspended in SDS and subjected to SDS-PAGE. Radioactive proteins were detected by exposure to film. […]

[5] = target: T1, Pyrophosphorylase; test: Specificity of pyrophosphorylase (reverse direction); assay type: biochemical, pig; details: 5 mM, PP = 1 mM; for Relative Activity: UDP-GalNAc = 100
Protocol: (§3) When measured in the reverse direction, either a direct assay or an indirect assay could be used. […] The incubation mixtures contained the following components in a final volume of 50 μl: 5 mM sodium pyrophosphate, 250 uM UDP-[^3 H]GlcNAc (2.2 Ci/mmol), 100 mM Tris HCl buffer, pH 8.5, 2 mM MgCl2, and various amounts of enzyme at the different stages of purification. […] The suspension was vortexed vigorously for 2 minutes, and was then centrifuged in a microfuge. The supernatant liquid was removed and saved, and the charcoal was washed with 1 ml of water. The supernatant liquid from this wash was combined with the first supernatant liquid, and an aliquot was removed and counted, as a measure of the formation of GlcNAc-1-P.
(§4) For the indirect assay, a modification of the spectrophotometric method of Munch-Petersen, (1956) Acta Chim. Scand. […] The assay mixtures contained 50 mM Tris-HCl buffer, pH 7.5, 1 mM MgCl2, 0.5 mM ADP, 1 mM glucose, 0.5 mM NADP, 1 mM inorganic pyrophosphate, 2 mM UDP-HexNAc and 2.5 units each of nucleoside diphosphate kinase, hexokinase and glucose-6-P dehydrogenase.
as §2

[6] = target: T1, Pyrophosphorylase; test: Effects of metal ions on pyrophosphorylase activity; assay type: biochemical, pig; details: metal ion 1 mM
Excerpt: Other ions such as Fe^+++, Ca^++ and Hg^++ were ineffective.

[7] = tested on: UDP-GlcNAc pyrophosphorylase from brain; details: cited from earlier work
[8] = tested on: UDP-GlcNAc pyrophosphorylase; details: [^3 H]UTP + GlcNAc-1-P, 2 hours
Protocol: The reaction products, formed in either the forward direction (i.e., uridine diphosphate sugars), or in the reverse direction (i.e., UTP and sugar-i-P's), were isolated by chromatography on a 1×20
column of DEAE-cellulose (HCO3 -), equilibrated in 10 mM NH4 HCO3. After application of the sample, the column was washed with the same solution and the retained products were eluted with 200 ml of a linear 10 to 300 mM gradient of NH4 HCO3. Fractions were analyzed for nucleotides by measuring the absorption at 260 nm, for radioactivity by scintillation counting, and for hexosamine by the Reissig test (J. Biol. Chem., 217, 959-966, 1955) or the or the Elson Morgan assay (Wheat, R. W. (1966) Meth. Enzymol. 8, 60-78). Peak fractions were pooled and concentrated on a rotary evaporator and NH4 H CO3 was removed by evaporation in the presence of triethylamine. The triethylamine was in turn removed by evaporation in the presence of methanol.
The reaction products were identified by chromatography, either directly, or following various treatments such as digestion with phosphodiesterase or alkaline phosphatase, or acid hydrolysis. Nucleotides were identified by TLC in the following systems: PEI plates developed in 0.2M and 0.4M solutions of LiCl; cellulose plates in ethanol: 1M ammonium acetate, pH 7.3 (7:3), or silica gel plates in ethanol: 1M ammonium acetate, pH 5.0 (7:3). N-acetyl-hexosamines were released from nucleotides by mild acid hydrolysis (0.01 N HCl, 100° C., 15 minutes) and identified by chromatography on borate-treated paper in n-butanol:pyridine:water (6:4:3) as described earlier by Cardini and Leloir, (1953) Arch. Biochem. Biophys., 45, 317-324.
After deproteinization, the aqueous phase was applied to a column of DE-52 and sugar phosphates and nucleoside diphosphate sugars were separated with a gradient of NH4 HCO3, as shown in FIG. 4. […] The peak was pooled and subjected to TLC in 3 different solvent systems as described above.
The characterization of these products was also based on the products produced by phosphosdiesterase, mild acid hydrolysis and other treatments.

[9] = tested on: sheep brain enzyme; details: cited from earlier work
[10] = tested on: UDP-GlcNAc pyrophosphorylase; details: reverse direction
Protocol: as §3, §4

[11] = tested on: GlcNAc transferases
[12] = at 1 mM UTP, read-out: apparant Km
[13] = metal chelators, as long as sufficient Mn++ was added
[14] = at 1 mM inorganic pyrophosphate

T2 sequence (F1S210 1-505): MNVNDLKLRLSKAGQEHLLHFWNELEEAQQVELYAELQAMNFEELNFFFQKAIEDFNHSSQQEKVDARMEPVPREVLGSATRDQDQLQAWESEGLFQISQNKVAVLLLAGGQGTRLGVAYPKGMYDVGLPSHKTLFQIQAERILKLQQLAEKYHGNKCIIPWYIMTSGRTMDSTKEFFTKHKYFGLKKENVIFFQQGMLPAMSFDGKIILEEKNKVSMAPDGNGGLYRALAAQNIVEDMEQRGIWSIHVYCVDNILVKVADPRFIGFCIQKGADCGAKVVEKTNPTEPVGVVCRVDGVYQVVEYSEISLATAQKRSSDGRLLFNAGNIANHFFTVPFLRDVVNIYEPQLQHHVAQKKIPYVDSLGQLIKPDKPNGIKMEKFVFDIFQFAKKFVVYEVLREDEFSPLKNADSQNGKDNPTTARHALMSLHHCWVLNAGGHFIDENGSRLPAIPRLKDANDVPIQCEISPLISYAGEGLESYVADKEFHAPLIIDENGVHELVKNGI
T1 sequence (F1S210 1-505): as above

Activity [1]: 5.28 nmol/min | Relative Activity [1]: 100% | Vmax ([2]; at 1 mM UTP): 7.1 nmol/min | Km [2, 12]: 5500 µM
Compound: CC(=O)N[C@H]1[C@@H](OP(=O)(O)O)O[C@H](CO)[C@H](O)[C@@H]1O [GalNAc-1-P]
substrate preference, forward direction [1]: GalNAc-1-P over GlcNAc-1-P; also recorded: prefers GalNAc-1-P slightly over GlcNAc-1-P

inhibition (in words) ([3]; even at 10 mM): nor did inorganic phosphate
Compound: O=P(O)(O)O [inorganic phosphate]

inhibition of labeling ([4]; nucleotides): very little inhibition of labeling
Compound: O=c1ccn([C@@H]2O[C@H](COP(=O)(O)OP(=O)(O)O)[C@@H](O)[C@H]2O)c(=O)[nH]1 [UDP]

Activity [1]: 4.83 nmol/min | Relative Activity [1]: 91% | Vmax ([2]; at 1 mM UTP): 3.1 nmol/min | Km [2, 12]: 2000 µM
Compound: CC(=O)N[C@H]1[C@@H](OP(=O)(O)O)O[C@H](CO)[C@@H](O)[C@@H]1O [GlcNAc-1-P]

Activity [5]: 1.4 nmol/min | Relative Activity [5]: 7%
Compound: O=C(O)[C@H]1O[C@H](OP(=O)(O)OP(=O)(O)OC[C@H]2O[C@@H](n3ccc(=O)[nH]c3=O)[C@H](O)[C@@H]2O)[C@H](O)[C@@H](O)[C@@H]1O [UDP-GlcCOOH, UDP-glucuronic acid]
inhibition of labeling ([4]; even at 1 mM): None of these sugar nucleotides showed any inhibition of the labeling

inhibition at 100 µM ([3]; read-out: Inhibition): 8% | inhibition at 1000 µM ([3]; read-out: Inhibition): 13% | inhibition (in words) [3, 13]: did not inhibit
Compound: O=C(O)CN(CCOCCOCCN(CC(=O)O)CC(=O)O)CC(=O)O [EGTA]

Activity [5]: 1.3 nmol/min | Relative Activity [5]: 7%
Compound: O=C(O)[C@H]1O[C@H](OP(=O)(O)OP(=O)(O)OC[C@H]2O[C@@H](n3ccc(=O)[nH]c3=O)[C@H](O)[C@@H]2O)[C@H](O)[C@@H](O)[C@H]1O [UDP-GalCOOH]

inhibition of labeling ([4]; nucleotides): very little inhibition of labeling
Compound: Nc1nc2c(ncn2[C@@H]2O[C@H](COP(=O)(O)OP(=O)(O)O)[C@@H](O)[C@H]2O)c(=O)[nH]1 [GDP]

Activity [1]: 0 nmol/min
Compound: N[C@H]1C(OP(=O)(O)O)O[C@H](CO)[C@H](O)[C@@H]1O (stereo partly shown) [GalN-1-P]

amount in UDP-GlcNAc area [8]: 7.9 µmol | radioactivity in UDP-GlcNAc area, share of total [8]: 79% | Activity [5]: 13.0 nmol/min | Relative Activity [5]: 66% | Km [10, 14]: 50 µM | Vmax [10, 14]: 22.2 nmol/min
Compound: CC(=O)NC1C(OP(=O)(O)OP(=O)(O)OCC2OC(n3ccc(=O)[nH]c3=O)C(O)C2O)OC(CO)C(O)C1O (stereo not shown) [UDP-GlcNAc, UDP-N-acetylglucosamine]
activity as substrate (in words) [9]: most active | inhibition of labeling ([4]; unlabeled UDP-GlcNAc 0.01 mM to 1 mM): labeling was efficiently blocked; also recorded: effectively inhibited the labeling of both subunits to about the same extent; also recorded: labeling is blocked

inhibition of labeling ([4]; nucleotides): very little inhibition of labeling
Compound: Nc1nc2c(ncn2[C@@H]2O[C@H](COP(=O)(O)OP(=O)(O)OP(=O)(O)O)[C@@H](O)[C@H]2O)c(=O)[nH]1 [GTP]

Km ([10]; at 1 mM UDP-GlcNAc): 70 µM | Vmax ([10]; at 1 mM UDP-GlcNAc): 20 nmol/min
Compound: O=P(O)(O)OP(=O)(O)O [inorganic pyrophosphate]

Activity [5]: 0.6 nmol/min | Relative Activity [5]: 3%
Compound: Nc1ncnc2c1ncn2[C@@H]1O[C@H](COP(=O)(O)OP(=O)(O)O[C@H]2O[C@H](CO)[C@@H](O)[C@H](O)[C@H]2O)[C@@H](O)[C@H]1O [ADP-Glc]

inhibition of labeling ([4]; nucleotides): a small effect
Compound: O=c1ccn([C@@H]2O[C@H](COP(=O)(O)O)[C@@H](O)[C@H]2O)c(=O)[nH]1 [UMP]

inhibition at 100 µM ([3]; read-out: Inhibition): 21% | inhibition at 1000 µM ([3]; read-out: Inhibition): 62%
Compound: O[C@H](CS)[C@H](O)CS (racemic) [Dithiothreitol]

Further lines, the compound ahead of its results:

Compound: NC(=O)CI [Iodoacetamide]
inhibition at 1000 µM [3]: 44%

Compound: O=C(O)CN(CCN(CC(=O)O)CC(=O)O)CC(=O)O [EDTA]
inhibition at 100 µM [3]: 5% | inhibition at 1000 µM [3]: 13% | inhibition (in words) [3, 13]: did not inhibit

Compound: Nc1nc2c(ncn2[C@@H]2O[C@H](COP(=O)(O)OP(=O)(O)O[C@H]3O[C@H](CO)[C@@H](O)[C@H](O)[C@@H]3O)[C@@H](O)[C@H]2O)c(=O)[nH]1 [GDP-mannose]
inhibition of labeling ([4]; even at 1 mM): None of these sugar nucleotides showed any inhibition of the labeling

Compound: Nc1ncnc2c1ncn2[C@@H]1O[C@H](COP(=O)(O)OP(=O)(O)OP(=O)(O)O)[C@@H](O)[C@H]1O [ATP]
inhibition of labeling ([4]; nucleotides): very little inhibition of labeling

Compound: N[C@H]1[C@@H](OP(=O)(O)O)O[C@H](CO)[C@@H](O)[C@@H]1O [GlcN-1-P]
Activity [1]: 0.10 nmol/min | Relative Activity [1]: 2%

Compound: [Mn+2] [Mn++, manganese]
Activity [6]: 4.89 nmol | Activity ([6]; Mn++ = 100): 100% | effectiveness as cation [7]: then Mn^++

Compound: 5-azido-salicylic-[^125 I]-allylamine-UDP-GlcNAc [5-azido-ASA-UDP-GlcNAc]
labeling of enzyme subunits by probe [4]: both the 64 kDa and the 55 kDa subunits of the enzyme became labeled with the probe | labeling of enzyme subunits by probe ([4]; listed as [^125 I]-N3 -salicyclic acid-allylamine-UDP-GlcNAc): Both subunits became labeled by this probe and labeling was saturable with increasing concentrations of probe | labeling of enzyme subunits by probe ([4]; listed as azido-[^125 I]-salicyclic acid-allylamine-UDP-GlcNAc): they both become labeled | labeling of GlcNAc transferases by probe [11]: does label the pyrophosphorylase and some GlcNAc transferases

Compound: O=c1ccn([C@@H]2O[C@H](COP(=O)(O)OP(=O)(O)O[C@H]3OC[C@@H](O)[C@H](O)[C@H]3O)[C@@H](O)[C@H]2O)c(=O)[nH]1 [UDP-xylose]
inhibition of labeling ([4]; even at 1 mM): None of these sugar nucleotides showed any inhibition of the labeling

Compound: O=c1ccn([C@@H]2O[C@H](COP(=O)(O)OP(=O)(O)OP(=O)(O)O)[C@@H](O)[C@H]2O)c(=O)[nH]1 [UTP]
Vmax ([2]; UTP as substrate, at 10 mM GlcNAc-1-P): 4.8 nmol/min | Km ([2]; UTP as substrate, at 10 mM GlcNAc-1-P, read-out: Km): 2500 µM | inhibition of labeling ([4]; nucleotides): very little inhibition of labeling

Compound: c1cnc2c(c1)ccc1cccnc12 [O-Phenanthroline, 1, 10-phenanthroline]
inhibition at 100 µM ([3]; read-out: Inhibition): 5% | inhibition at 1000 µM ([3]; read-out: Inhibition): 16% | inhibition (in words) [3, 13]: did not inhibit

Compound: CCN1C(=O)C=CC1=O [N-ethylmaleimide]
inhibition at 10 µM ([3]; 0.01 mM): 3% | inhibition at 100 µM [3]: 46% | inhibition at 1000 µM [3]: 72%

Compound: O=P(O)(O)O[C@H]1O[C@H](CO)[C@H](O)[C@H](O)[C@H]1O [Gal-1-P]
substrate preference, forward direction [1]: may act as substrates but to a much lower degree | Activity [1]: 0.14 nmol/min | Relative Activity [1]: 3%

Compound: O=P(O)(O)O[C@H]1O[C@H](CO)[C@@H](O)[C@H](O)[C@H]1O [Glc-1-P, glucose-1-P]
substrate preference, forward direction [1]: may act as substrates but to a much lower degree | Activity [1]: 0.20 nmol/min | Relative Activity [1]: 4% | Vmax ([2]; at 1 mM UTP): 1.7 nmol/min | Km [2, 12]: 66600 µM
